The text below walks through data of patent US20120142690A1, “Substituted piperidines” (BAYER PHARMA AKTIENGESELLSCHAFT, priority 2009, published 2012).

As a reminder, the IC50 is the concentration needed to halve the response being measured.

In the test the target is T1, human protease activated receptor 1 (PAR-1) (Homo sapiens, UniProt P25116).
T1 construct: the cell stably expresses the endogenous human PAR-1 receptor; endogenous in cells; host or cells: HEK293-derived recombinant cell line that constitutively expresses mitochondrial aequorin
T1 sequence (P25116 22-425): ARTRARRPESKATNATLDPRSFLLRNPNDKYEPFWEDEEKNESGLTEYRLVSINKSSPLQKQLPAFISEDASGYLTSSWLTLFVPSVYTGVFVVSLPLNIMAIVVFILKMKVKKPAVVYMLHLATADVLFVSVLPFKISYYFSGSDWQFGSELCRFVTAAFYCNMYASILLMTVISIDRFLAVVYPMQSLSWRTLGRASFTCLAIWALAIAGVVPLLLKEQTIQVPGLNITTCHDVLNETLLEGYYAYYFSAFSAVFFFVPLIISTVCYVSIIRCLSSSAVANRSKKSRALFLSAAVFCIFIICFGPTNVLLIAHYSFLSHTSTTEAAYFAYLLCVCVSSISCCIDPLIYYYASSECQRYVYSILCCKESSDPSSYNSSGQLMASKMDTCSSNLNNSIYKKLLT
Kind of test: Cellular functional in vitro test (aequorin luminescence, PAR-1 test cell). It is filed as cell-based. To be noted: recombinant HEK293-derived cell line expressing aequorin; PAR-1 agonist at EC50; calcium-dependent luminescence. The source says: 1.a) Cellular Functional In Vitro Test
A recombinant cell line is used to identify antagonists of the human protease activated receptor 1 (PAR-1) and to quantify the activity of the substances described herein. The cell is originally derived from a human embryonal kidney cell (HEK293; ATCC: American Type Culture Collection, Manassas, Va. 20108, USA). The test cell line constitutively expresses a modified form of the calcium-sensitive photoprotein acquorin which, after reconstitution with the cofactor coelenterazine, emits light when the free calcium concentration in the inner mitochondrial compartment is increased (Rizzuto R, Simpson A W, Brini M, Pozzan T.; Nature 1992, 358, 325-327). Additionally, the cell stably expresses the endogenous human PAR-1 receptor and the endogenous purinergic receptor P2Y2. The resulting PAR-1 test cell responds to stimulation of the endogenous PAR-1 or P2Y2 receptor with an intracellular release of calcium ions, which can be quantified through the resulting acquorin luminescence with a suitable luminometer (Milligan G, Marshall F, Rees S, Trends in Pharmacological Sciences 1996, 17, 235-237). […]
Test procedure: The cells are plated out two days (48 h) before the test in culture medium (DMEM F12, supplemented with 10% FCS, 2 mM glutamine, 20 mM HEPES, 1.4 mM pyruvate, 0.1 mg/ml gentamycin, 0.15% Na bicarbonate; BioWhittaker Cat.#BE04-687Q; B-4800 Verviers, Belgium) in 384-well microtitre plates and kept in a cell incubator (96% atmospheric humidity, 5% v/v CO2, 37° C.). […] The test substances are then pipetted onto the microtitre plate, and 5 minutes after the transfer of the test substances into the wells of the microtitre plate the plate is transferred into the luminometer, a PAR-1 agonist concentration which corresponds to EC50 is added and the resulting light signal is immediately measured in the luminometer. To distinguish an antagonist substance action from a toxic action, the endogenous purinergic receptor is immediately subsequently activated with agonist (ATP, final concentration 10 μM) and the resulting light signal is measured.
`COc1ccccc1-c1ccc(/C=C/C2CC(c3ccc(C(F)(F)F)cc3)CN(C(=O)N3CCOCC3)C2)nc1` (racemic) [Example 7, (3-{(E)-2-[5-(2-Methoxyphenyl)pyridin-2-yl]vinyl}-5-[4-(trifluoromethyl)phenyl]piperidin-1-yl)-(morpholin-4-yl)methanone]: the half-maximal inhibitory concentration (IC50) stood at 1.9 nM.

`O=C(N1CCOCC1)N1CC(/C=C/c2ccc(-c3cccc(Cl)c3)cn2)CC(c2ccc(C(F)(F)F)cc2)C1` (racemic) [Example 9, (3-{(E)-2-[5-(3-Chlorophenyl)pyridin-2-yl]vinyl}-5-[4-(trifluoromethyl)phenyl]piperidin-1-yl)-(morpholin-4-yl)methanone]: the IC50 came to 2.2 nM.

On to `O=C(N1CCOCC1)N1CC(/C=C/c2ccc(-c3cccc(C(F)(F)F)c3)cn2)CC(c2ccc(C(F)(F)F)cc2)C1` (single isomer, unassigned) [Example 5, Morpholin-4-yl{3-[4-(trifluoromethyl)phenyl]-5-[(E)-2-{5-[3-(trifluoromethyl)phenyl]pyridin-2-yl}vinyl]piperidin-1-yl}methanone], for which the half-maximal inhibitory concentration (IC50) came to 2 nM.
